Reference: PubChem BioAssay (NCI)
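Following 48 hours of exposure in 96-well plates, responses at five concentrations were used to interpolate endpoints linearly. TGI marks complete inhibition of growth.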

Columns and labels:
Assay in all cases: NCI anticancer screen, dose series, 48 h
DU-145 prostate = system: DU-145 prostate
HCC-2998 colon = system: HCC-2998 colon
HOP-92 NSCLC = system: HOP-92 NSCLC
HS 578T breast = system: HS 578T breast
HT29 colon = system: HT29 colon
K-562 leukemia = system: K-562 leukemia
MCF7 breast = system: MCF7 breast
MDA-MB-231 breast = system: MDA-MB-231 breast
OVCAR-3 ovarian = system: OVCAR-3 ovarian
OVCAR-5 ovarian = system: OVCAR-5 ovarian
OVCAR-8 ovarian = system: OVCAR-8 ovarian
PC-3 prostate = system: PC-3 prostate
SF-268 CNS = system: SF-268 CNS
SF-295 CNS = system: SF-295 CNS
SK-MEL-2 melanoma = system: SK-MEL-2 melanoma
SK-MEL-28 melanoma = system: SK-MEL-28 melanoma
SK-MEL-5 melanoma = system: SK-MEL-5 melanoma
SN12C renal = system: SN12C renal
T-47D breast = system: T-47D breast
UACC-257 melanoma = system: UACC-257 melanoma

Measured: TGI

Cc1ccc(OCCn2cc(Nc3ccccc3)c(=O)[nH]c2=O)cc1
> 100 µM: all assays above
